Experimental data: US20100280061A1, “NOVEL ANALGESIC THAT BINDS FILAMIN A” (priority 2009, published 2010)

Experiments:
[1] = molecular target: T1, mu opiate receptor (MOR) (Rattus norvegicus, UniProt P33535); test: [35S]GTPγS binding assay using striatal membranes (MOR agonist activity); type: biochemical; set-up: MOR agonist activity, [35S]GTPγS binding to Gαo, 0.1 μM / MOR agonist activity, [35S]GTPγS binding to Gαo, 1 μM / MOR agonist activity, [35S]GTPγS binding to Gαo, 1 μM + BFNA: reference not given here; conditions: for MOR agonist activity, [35S]GTPγS binding to Gαo, 0.1 μM: 0.1 μM compound; for MOR agonist activity, [35S]GTPγS binding to Gαo, 0.1 μM / MOR agonist activity, [35S]GTPγS binding to Gαo, 1 μM: striatal membranes; for MOR agonist activity, [35S]GTPγS binding to Gαo, 1 μM + BFNA: 1 μM compound + 1 μM β-funaltrexamine; for MOR agonist activity, [35S]GTPγS binding to Gαo, 1 μM: 1 μM compound
T1 construct: from tissue; host or cells: striatal tissue (membrane preparation)
T1 sequence (P33535 whole entry): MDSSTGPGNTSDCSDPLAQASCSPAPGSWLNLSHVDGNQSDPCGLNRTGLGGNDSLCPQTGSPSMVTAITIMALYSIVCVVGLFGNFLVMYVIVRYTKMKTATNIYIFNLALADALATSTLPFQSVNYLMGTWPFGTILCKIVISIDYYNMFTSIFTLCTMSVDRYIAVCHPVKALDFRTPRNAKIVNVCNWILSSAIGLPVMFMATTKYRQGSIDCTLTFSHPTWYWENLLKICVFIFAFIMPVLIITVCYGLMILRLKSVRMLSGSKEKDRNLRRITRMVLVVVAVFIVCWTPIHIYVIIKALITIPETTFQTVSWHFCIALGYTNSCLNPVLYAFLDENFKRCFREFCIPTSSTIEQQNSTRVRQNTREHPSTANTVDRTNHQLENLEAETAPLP
Procedure: To assess the mu opiate receptor (MOR) agonist activity of positive compounds from the FLNA screening, compounds were tested in a [^35S]GTPγS binding assay using striatal membranes. Our previous study has shown that in striatal membranes, activation of MOR leads to an increase in [^35S]GTPγS binding to Gαo (Wang et al., 2005 Neuroscience 135:247-261).
Striatal tissue was homogenized in 10 volumes of ice cold 25 mM HEPES buffer, pH 7.4, which contained 1 mM EGTA, 100 mM sucrose, 50 μg/ml leupeptin, 0.04 mM PMSF, 2 μg/ml soybean trypsin inhibitor and 0.2% 2-mercaptoethanol. The homogenates were centrifuged at 800×g for 5 minutes and the supernatants were centrifuged at 49,000×g for 20 minutes. The resulting pellets were suspended in 10 volume of reaction buffer, which contained 25 mM HEPES, pH 7.5, 100 mM NaCl, 50 μg/ml leupeptin, 2 μg/ml soybean trypsin inhibitor, 0.04 mM PMSF and 0.02% […].
The resultant striatal membrane preparation (200 μg) was admixed and maintained (incubated) at 30° C. for 5 minutes in reaction buffer as above that additionally contained 1 mM MgCl2 and 0.5 nM [^35S]GTPγS (0.1 μCi/assay, PerkinElmer Life and Analytical Sciences) in a total volume of 250 μl and continued for 5 minutes in the absence or presence of 0.1-10 μM of an assayed compound of interest. The reaction was terminated by dilution with 750 μl of ice-cold reaction buffer that contained 20 mM MgCl2 and 1 mM EGTA and immediate centrifugation at 16,000×g for 5 minutes.
The resulting pellet was solubilized by sonicating for 10 seconds in 0.5 ml of immunoprecipitation buffer containing 0.5% digitonin, 0.2% sodium cholate and 0.5% NP-40. Normal rabbit serum (1 μl) was added to 1 ml of lysate and incubated at 25° C. for 30 minutes. Nonspecific immune complexes were removed by incubation with 25 μl of protein A/G-conjugated agarose beads at 25° C. for 30 minutes followed by centrifugation at 5,000×g at 4° C. for 5 minutes. The supernatant was divided and separately incubated at 25° C. for 30 minutes with antibodies raised against Gαo proteins (1:1,000 dilutions).
The immunocomplexes so formed were collected by incubation at 25° C. for 30 minutes with 40 μl of agarose-conjugated protein A/G beads and centrifugation at 5,000×g at 4° C. for 5 minutes. The pellet was washed and suspended in buffer containing 50 mM Tris-HCl, pH 8.0, and 1% NP-40. The radioactivity in the suspension was determined by liquid scintillation spectrometry. […] DAMGO (H-Tyr-D-Ala-Gly-N-MePhe-Gly-OH; 1 or 10 μM) was used as a positive control.

[2] = system: mouse; test: Mouse hot-water tail-flick test; type: in vivo; conditions: orally administered
Procedure: The mouse “tail flick” test was used to assay the relative antinociceptive activity of compositions containing a compound to be assayed.
This assay was substantially that disclosed by Xie et al., 2005 J. Neurosci 25:409-416.
The mouse hot-water tail-flick test was performed by placing the distal third of the tail in a water bath maintained at 52° C. The latency until tail withdrawal from the bath was determined and compared among the treatments. A 10 second cutoff was used to avoid tissue damage. Data are converted to percentage of antinociception by the following formula: (response latency−baseline latency)/(cutoff−baseline latency)×100 to generate dose-response curves. […] Relative potency was determined as a ratio of the A50 values.

[3] = system: MOR-Gs/olf and MOR-Go coupling; test: Relative Gs/Go switching in organotypic striatal slice cultures (MOR-G protein coupling); type: cell-based, rat; conditions: for Go (MOR in anti-Gαo immunoprecipitates), average / Gs/Go-Coupled Ratio, average / Gs/olf (MOR in anti-Gαs/olf immunoprecipitates), average: striatal slice culture
Procedure: The experiments described herein were carried out on organotypic striatal slices from male Sprague Dawley rats (200 to 250 g) purchased from Taconic (Germantown, N.Y.). Rats were housed two per cage and maintained on a regular 12-hour light/dark cycle in a climate-controlled room with food and water available ad libitum and sacrificed by rapid decapitation. All data are presented as mean±standard error of the mean. Treatment effects were evaluated by two-way ANOVA followed by Newman-Keul's test for multiple comparisons. Two-tailed Student's t test was used for post hoc pairwise comparisons. The threshold for significance was p<0.05.
Striatal slices ([…]) were prepared using a Mcllwain tissue chopper (Mickle Laboratory Engineering Co., Surrey, UK). Slices were carefully transferred to sterile, porous culture inserts (0.4 μm, Millicell-CM) using the rear end of a glass Pasteur pipette. Each culture insert unit contained 2 slices and was placed into one well of the 12-well culture tray. […] The pH value was adjusted to 7.2 with HEPES buffer.
Cultures were first incubated for 2 days to minimize the impact of injury from slice preparation. Incubator settings throughout the experiment were 36° C. with 5% CO2.
Slices were returned to culture medium with normal serum after each drug exposure. Tissues were harvested 16 hours after the last drug exposure by centrifugation.
For determination of MOR-G protein coupling, slices were homogenized to generate synaptic membranes. […] Following centrifugation, striatal membrane lysates were immunoprecipitated with immobilized anti-Gαs/olf or -Gαo conjugated with immobilized protein G-agarose beads. The level of MOR in anti-Gαs/olf or -Gαo immunoprecipitates was determined by Western blotting using specific anti-MOR antibodies.

[4] = molecular target: Bn-VAKGL pentapeptide of filamin A (FLNA) (Homo sapiens, UniProt P21333); test: FITC-NLX-based FLNA screening assay (FLNA peptide binding assay); conditions: 10 nM FITC-NLX; for Percent inhibition of FITC-NLX binding, 0.01 μM: 0.01 μM compound; for Percent inhibition of FITC-NLX binding, 0.1 μM: 0.1 μM compound; for Percent inhibition of FITC-NLX binding, 1 μM: 1 μM compound
Procedure: The final assay volume is 100 μl.
Compounds are tested in triplicate or quadruplicate.

[5] = molecular target: filamin A (Homo sapiens, UniProt P21333); conditions: read-out: affinity of binding to filamin A; cited from earlier work
Chain of filamin A (P21333 whole entry): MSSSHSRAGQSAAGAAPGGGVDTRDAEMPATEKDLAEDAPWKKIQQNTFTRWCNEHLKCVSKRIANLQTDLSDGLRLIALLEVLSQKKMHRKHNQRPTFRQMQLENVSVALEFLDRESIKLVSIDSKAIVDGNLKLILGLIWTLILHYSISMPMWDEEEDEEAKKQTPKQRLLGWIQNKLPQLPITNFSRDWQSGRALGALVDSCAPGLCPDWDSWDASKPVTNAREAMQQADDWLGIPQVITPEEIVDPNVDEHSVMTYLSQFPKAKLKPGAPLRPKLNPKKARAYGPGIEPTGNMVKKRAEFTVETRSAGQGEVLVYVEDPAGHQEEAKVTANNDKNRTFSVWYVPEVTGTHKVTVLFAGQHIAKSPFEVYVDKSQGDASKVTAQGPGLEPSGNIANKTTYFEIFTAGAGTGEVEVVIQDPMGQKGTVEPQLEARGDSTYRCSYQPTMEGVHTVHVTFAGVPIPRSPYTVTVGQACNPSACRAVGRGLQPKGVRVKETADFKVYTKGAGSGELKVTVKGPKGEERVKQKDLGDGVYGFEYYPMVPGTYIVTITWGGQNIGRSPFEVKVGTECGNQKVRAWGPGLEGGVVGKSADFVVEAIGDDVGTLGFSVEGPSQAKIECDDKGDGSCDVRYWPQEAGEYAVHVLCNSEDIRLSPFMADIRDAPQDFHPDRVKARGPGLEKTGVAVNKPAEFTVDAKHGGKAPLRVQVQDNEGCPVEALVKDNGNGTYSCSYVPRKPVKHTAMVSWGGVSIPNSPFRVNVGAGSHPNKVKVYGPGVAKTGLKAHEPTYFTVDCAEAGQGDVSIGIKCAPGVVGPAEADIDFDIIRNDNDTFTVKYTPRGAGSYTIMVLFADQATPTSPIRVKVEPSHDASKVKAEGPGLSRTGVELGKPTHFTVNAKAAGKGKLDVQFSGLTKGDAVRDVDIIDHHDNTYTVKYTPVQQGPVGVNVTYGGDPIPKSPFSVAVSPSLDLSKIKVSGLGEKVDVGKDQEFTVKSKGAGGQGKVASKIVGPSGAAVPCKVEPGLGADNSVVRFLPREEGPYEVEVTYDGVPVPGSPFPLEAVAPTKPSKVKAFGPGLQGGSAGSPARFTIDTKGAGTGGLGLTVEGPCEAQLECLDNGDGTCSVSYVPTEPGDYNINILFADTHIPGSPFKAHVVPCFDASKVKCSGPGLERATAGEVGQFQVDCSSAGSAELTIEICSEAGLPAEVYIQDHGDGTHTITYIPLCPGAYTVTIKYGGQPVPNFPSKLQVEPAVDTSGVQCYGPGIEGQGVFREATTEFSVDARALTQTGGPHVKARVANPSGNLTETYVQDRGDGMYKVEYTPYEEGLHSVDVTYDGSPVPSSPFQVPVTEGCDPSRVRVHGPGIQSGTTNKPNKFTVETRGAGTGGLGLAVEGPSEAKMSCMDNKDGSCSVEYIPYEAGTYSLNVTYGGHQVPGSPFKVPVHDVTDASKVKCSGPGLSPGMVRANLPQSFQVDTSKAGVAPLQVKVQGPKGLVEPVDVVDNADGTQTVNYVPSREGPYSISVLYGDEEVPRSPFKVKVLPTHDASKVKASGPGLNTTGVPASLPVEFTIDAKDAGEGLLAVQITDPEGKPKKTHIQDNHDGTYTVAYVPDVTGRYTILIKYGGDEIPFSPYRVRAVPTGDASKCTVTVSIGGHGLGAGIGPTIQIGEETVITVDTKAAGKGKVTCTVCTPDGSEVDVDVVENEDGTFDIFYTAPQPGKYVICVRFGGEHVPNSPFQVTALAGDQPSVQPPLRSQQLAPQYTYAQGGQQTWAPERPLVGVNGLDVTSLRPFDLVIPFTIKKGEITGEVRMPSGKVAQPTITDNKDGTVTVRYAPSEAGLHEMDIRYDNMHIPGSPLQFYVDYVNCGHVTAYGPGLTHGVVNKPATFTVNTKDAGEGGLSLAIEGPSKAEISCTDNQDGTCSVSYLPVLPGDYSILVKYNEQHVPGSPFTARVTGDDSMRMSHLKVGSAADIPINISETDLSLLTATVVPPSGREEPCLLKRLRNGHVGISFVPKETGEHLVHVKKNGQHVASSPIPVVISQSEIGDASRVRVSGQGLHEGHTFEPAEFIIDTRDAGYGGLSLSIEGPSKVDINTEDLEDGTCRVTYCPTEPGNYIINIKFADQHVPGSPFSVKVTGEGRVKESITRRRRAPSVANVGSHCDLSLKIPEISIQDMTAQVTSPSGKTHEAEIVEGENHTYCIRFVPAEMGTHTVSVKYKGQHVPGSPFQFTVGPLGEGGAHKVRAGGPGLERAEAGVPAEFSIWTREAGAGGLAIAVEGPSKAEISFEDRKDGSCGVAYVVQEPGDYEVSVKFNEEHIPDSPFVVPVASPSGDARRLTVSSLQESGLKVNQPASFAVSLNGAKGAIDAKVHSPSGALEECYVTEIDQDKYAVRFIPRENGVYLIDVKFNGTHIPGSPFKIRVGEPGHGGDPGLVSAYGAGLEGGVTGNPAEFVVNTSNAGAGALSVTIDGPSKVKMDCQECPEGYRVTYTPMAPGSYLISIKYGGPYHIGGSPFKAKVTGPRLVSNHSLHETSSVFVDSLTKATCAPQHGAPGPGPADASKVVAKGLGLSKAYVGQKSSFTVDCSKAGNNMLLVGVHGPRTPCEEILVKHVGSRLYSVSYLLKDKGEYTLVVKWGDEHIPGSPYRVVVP

[6] = 32 mg/kg, at about 20-30 minutes

| Compound | MOR agonist activity, [35S]GTPγS binding to Gαo, 0.1 μM [1] | MOR agonist activity, [35S]GTPγS binding to Gαo, 1 μM + BFNA [1] | MOR agonist activity, [35S]GTPγS binding to Gαo, 1 μM [1] | Percent inhibition of FITC-NLX binding, 0.01 μM [4] | Percent inhibition of FITC-NLX binding, 0.1 μM [4] | Percent inhibition of FITC-NLX binding, 1 μM [4] | further results |
| --- | --- | --- | --- | --- | --- | --- | --- |
| COc1ccccc1CC(=O)CC1c2c(cc3c(c2OC)OCO3)CC[N+]1(C)C (centres unmarked) [compound 5009] | 128.5% | 87.5% | 270.4% | – | – | – | mean maximum antinoniception amount [2, 6]: about 30% |
| COc1ccc2c3c1O[C@H]1C(=O)CC[C@@]4(O)[C@@H](C2)N(C)CC[C@]314 [Oxycodone, oxycodone, reference compound] | – | – | – | – | – | – | switch of mu opioid receptors from Go to Gs coupling ([3]; 7 days of twice daily 1-hour exposures, organotypic striatal slice cultures): switch from Go to Gs coupling |
| COc1cccc(OC)c1CC(=O)CC1c2c(cc3c(c2OC)OCO3)CC[N+]1(C)C.[I-] (centres unmarked) [B0036] | 61.4% | 65.1% | 120.6% | 46.6% | 52.8% | 62.1% | mean maximum antinoniception amount [2, 6]: about 20% |
| O=C1CC[C@@]2(O)[C@H]3Cc4ccc(O)c5c4[C@@]2(CCN3CC2CC2)[C@H]1O5 [NTX, naltrexone] | – | – | – | – | – | – | Kd [5]: ~4 pM |
| COc1ccccc1C(=O)CC1c2c(cc3c(c2OC)OCO3)CC[N+]1(C)C (centres unmarked) [B0025] | 159.6% | 137.7% | 234.6% | 41.7% | 49.4% | 56.6% | – |
| COc1ccc(CCC(O)CC2c3c(cc4c(c3OC)OCO4)CCN2C)cc1 (centres unmarked) [B0048] | 185.1% | 78.5% | 223.4% | 34.7% | 41.9% | 43.9% | – |
| COCOc1ccc(CCC(=O)CC2c3c(cc4c(c3OC)OCO4)CC[N+]2(C)C)cc1.[I-] (centres unmarked) [B0040] | 146.0% | 55.3% | 243.3% | 40.0% | 53.1% | 57.1% | Go (MOR in anti-Gαo immunoprecipitates), average ([3]; 10 μM): 1419.8; Gs/Go-Coupled Ratio, average ([3]; 10 μM): 0.598; Gs/olf (MOR in anti-Gαs/olf immunoprecipitates), average ([3]; 10 μM): 839.0; Go (MOR in anti-Gαo immunoprecipitates), average ([3]; 100 μM): 1472.6; Gs/Go-Coupled Ratio, average ([3]; 100 μM): 0.332; Gs/olf (MOR in anti-Gαs/olf immunoprecipitates), average ([3]; 100 μM): 867.2; mean maximum antinoniception amount [2, 6]: about 25% |
| COc1cc(CC(=O)CC2c3c(cc4c(c3OC)OCO4)CC[N+]2(C)C)cc(OC)c1OC (centres unmarked) [B0008] | 148.3% | 46.0% | 264.1% | 35.5% | 40.3% | 52.8% | – |
| COc1c2c(cc3c1C(CC(=O)c1ccc(O)c(C)c1)[N+](C)(C)CC3)OCO2 (centres unmarked) [B0002] | 165.7% | 101.4% | 219.0% | 40.2% | 46.4% | 55.0% | – |
| COc1c2c(cc3c1C(CC(O)CCc1ccccc1)[N+](C)(C)CC3)OCO2 (centres unmarked) [B0052] | 98.2% | 40.9% | 151.7% | 30.2% | 39.1% | 44.3% | – |
| C=CCN1CC[C@]23c4c5ccc(O)c4O[C@H]2C(=O)CC[C@@]3(O)[C@H]1C5 [NLX, naloxone] | – | – | – | – | – | – | Kd [5]: ~4 pM |
| COc1cccc(CC(=O)CC2c3c(cc4c(c3OC)OCO4)CC[N+]2(C)C)c1OC (centres unmarked) [B0038] | 147.5% | 117.1% | 205.3% | 41.2% | 50.1% | 57.0% | – |
| CN1CC[C@]23c4c5ccc(O)c4O[C@H]2[C@@H](O)C=C[C@H]3[C@H]1C5 [morphine, reference compound] | – | – | – | – | – | – | mean maximum antinoniception amount ([2]; 56 mg/kg, at about 20 minutes): about 43%; antinoniceptive effect ([2]; same dose (32 mg/kg), at thirty minutes): about 30% |
